What is called IC50 is the concentration at which inhibition is half-maximal. What is called Ki is the equilibrium dissociation constant of an inhibitor or competing ligand from its target.

The source made the active and inactive calls. The rule behind the calls is not given here. Square brackets hold non-standard residues; d marks the D form. Peptide text beside a SMILES is read from it. * marks the point of attachment. ξ: configuration not given here. ξF = NC(Cc1ccccc1)C(=O)O; Cbz = O=C(OCc1ccccc1)*; CH2F = FC*

This note sets out measurements from ChEMBL document CHEMBL4715741, “Neuroprotective effect of synthetic chalcone derivatives as competitive dual inhibitors against μ-calpain and cathepsin B through the downregulation of tau phosphorylation and insoluble Aβ peptide formation” (Eur J Med Chem, 2016).

Assay [1] has as its target T1, Calpain-1 catalytic subunit (Homo sapiens, UniProt P07384).
T1 sequence (P07384 whole entry): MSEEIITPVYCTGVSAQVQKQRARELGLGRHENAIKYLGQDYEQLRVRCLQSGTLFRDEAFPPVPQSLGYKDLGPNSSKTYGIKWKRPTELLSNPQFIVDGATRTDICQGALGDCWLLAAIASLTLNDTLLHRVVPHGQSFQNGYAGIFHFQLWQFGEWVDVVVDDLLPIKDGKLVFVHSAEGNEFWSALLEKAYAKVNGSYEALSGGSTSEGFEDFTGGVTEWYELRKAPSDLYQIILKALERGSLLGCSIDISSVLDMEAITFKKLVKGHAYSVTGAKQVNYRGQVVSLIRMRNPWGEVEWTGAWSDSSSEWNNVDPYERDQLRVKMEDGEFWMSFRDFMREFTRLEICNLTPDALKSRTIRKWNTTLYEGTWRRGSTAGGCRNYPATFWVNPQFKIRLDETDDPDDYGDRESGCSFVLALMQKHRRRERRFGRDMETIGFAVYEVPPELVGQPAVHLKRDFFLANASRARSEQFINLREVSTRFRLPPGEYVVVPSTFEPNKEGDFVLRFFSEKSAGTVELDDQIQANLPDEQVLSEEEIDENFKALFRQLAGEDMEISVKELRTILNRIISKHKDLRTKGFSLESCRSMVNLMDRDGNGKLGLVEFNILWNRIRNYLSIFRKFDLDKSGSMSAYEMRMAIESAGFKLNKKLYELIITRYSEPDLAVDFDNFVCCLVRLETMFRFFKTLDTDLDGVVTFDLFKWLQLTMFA
The experiment in a line: Inhibition of human erythrocytes mu-calpain using Pep1 as substrate incubated for 30 mins under shaking condition in presence of CaCl2 by fluorescence assay. Details: species or system Erythrocyte.

The target in assay [2] is T2, Cathepsin B (Homo sapiens, UniProt P07858). The experiment in a line: Inhibition of cathepsin B (unknown origin) using RR-AMC as substrate preincubated for 30 mins followed by substrate addition and further incubated for 30 mins under shaking condition by fluorescence assay.
The next assay deals with Procathepsin L (Homo sapiens, UniProt P07711). The experiment in a line: Inhibition of cathepsin L (unknown origin) using Z-FR-AMC as substrate preincubated for 30 mins followed by substrate addition and further incubated for 30 mins under shaking condition by fluorescence assay.
Chain of Procathepsin L (P07711 whole entry): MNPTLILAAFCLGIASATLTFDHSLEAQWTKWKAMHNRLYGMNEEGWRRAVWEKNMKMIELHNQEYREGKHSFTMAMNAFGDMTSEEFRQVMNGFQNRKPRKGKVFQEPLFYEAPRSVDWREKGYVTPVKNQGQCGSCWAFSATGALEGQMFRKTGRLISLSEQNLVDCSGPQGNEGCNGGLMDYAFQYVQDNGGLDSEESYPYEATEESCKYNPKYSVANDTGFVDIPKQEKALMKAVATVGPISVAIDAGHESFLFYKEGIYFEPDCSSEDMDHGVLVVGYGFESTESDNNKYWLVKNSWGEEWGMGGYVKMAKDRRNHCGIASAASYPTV
Assay [3] has as its system SH-SY5Y. The experiment in a line: Neuroprotective activity in human SH-SY5Y cells assessed as reduction in GOx-induced PARP cleavage at 20 uM pretreated with GOx for 4 hrs followed by compound treatment by Western blot analysis. The class given is functional, cell-based. (A western blot detects proteins with antibodies after separation by electrophoresis.)
Assay [4] concerns the target T1, Calpain-1 catalytic subunit. The assay is described as follows: Inhibition of human erythrocytes mu-calpain using Pep2 as substrate incubated for 30 mins under shaking condition in presence of CaCl2 by fluorescence assay. Also noted: species or system Erythrocyte.
The target in assay [5] is T3, Calpain-1 catalytic subunit (Homo sapiens) (UniProt P07384).
T3 sequence (whole entry): T1 sequence (P07384 whole entry)
The experiment in a line: Inhibition of mu-calpain in human SH-SY5Y cells assessed as reduction in GOx-induced […] pretreated with GOx for 4 hrs followed by compound treatment by Western blot analysis. The class given is cell-based.

Assay [6] deals with SH-SY5Y. The experiment in a line: Inhibition of mu-calpain/cathepsin B in human SH-SY5Y cells assessed as reduction in GOx-induced BACE1 upregulation at 20 uM pretreated with GOx for 4 hrs followed by compound treatment by Western blot analysis. The class given is cell-based.
In assay [7] the test system is SH-SY5Y. The assay is described as follows: Neuroprotective activity in human SH-SY5Y cells assessed as reduction in GOx-induced caspase 3 cleavage pretreated with GOx for 4 hrs followed by compound treatment by Western blot analysis. The class given is functional, cell-based.
Assay [8] addresses T3, Calpain-1 catalytic subunit (Homo sapiens). The experiment in a line: Inhibition of mu-calpain (unknown origin) expressed in SH-SY5Y cells assessed as reduction in p35 cleavage at 20 uM using p35 as substrate measured after 210 mins by fluorescence microplate reader assay. The class given is cell-based.
The test system of assay [9] is SH-SY5Y. The assay is described as follows: Neuroprotective activity in human SH-SY5Y cells assessed as reduction in GOx-induced PARP cleavage at 5 uM pretreated with GOx for 4 hrs followed by compound treatment by Western blot analysis. The class given is functional, cell-based.
Assay [10] concerns the target T3, Calpain-1 catalytic subunit (Homo sapiens). The experiment in a line: Inhibition of mu-calpain in human SH-SY5Y cells assessed as reduction in tau phosphorylation by Western blot analysis. The class given is cell-based.
Assay [11] concerns the target T2, Cathepsin B. The assay is described as follows: Competitive inhibition of cathepsin B (unknown origin) using varying level of RR-AMC as substrate by Lineweaver-Burk plot analysis.
For assay [12], the target named is T1, Calpain-1 catalytic subunit. The experiment in a line: (§1) Competitive inhibition of human erythrocytes mu-calpain using varying level of Pep2 as substrate by Lineweaver-Burk plot analysis. Also noted: species or system Erythrocyte.
The target in assay [13] is T3, Calpain-1 catalytic subunit (Homo sapiens). The description is as §1. The settings on record: Erythrocyte.
Assay [14] concerns the target T2, Cathepsin B. The assay is described as follows: Inhibition of cathepsin B in human SH-SY5Y cells using RR-AMC as substrate by fluorescence microplate reader assay. The class given is cell-based.
Assay [15] concerns the target T3, Calpain-1 catalytic subunit (Homo sapiens). The experiment in a line: Inhibition of mu-calpain (unknown origin) expressed in HEK293T cells assessed as reduction in p35 cleavage at 5 uM using p35 as substrate measured after 210 mins by fluorescence microplate reader assay. The class given is cell-based.
Assay [16] shares this target. The assay is described as follows: Inhibition of mu-calpain in human SH-SY5Y cells assessed as reduction in GOx-induced MAPK phosphorylation pretreated with GOx for 4 hrs followed by compound treatment by Western blot analysis. The class given is cell-based.
Assay [17] relates to SH-SY5Y. The experiment in a line: Reduction in GOx-induced amyloid beta(1 to 42) level in human SH-SY5Y cells pretreated with GOx for 4 hrs followed by compound treatment by sandwich ELISA. The class given is functional, cell-based. For orientation: In an ELISA, binding on a coated surface is turned into a signal by an enzyme label.
For assay [18], the target named is T2, Cathepsin B. The experiment in a line: Inhibition of human liver cathepsin B using RR-AMC as substrate preincubated for 30 mins followed by substrate addition and further incubated for 30 mins under shaking condition by fluorescence assay. The class given is tissue-based.

Regarding `O=C(N[C@@H](Cc1ccccc1)C(=O)N[C@@H](Cc1ccccc1)C(=O)CF)OCc1ccccc1` (Cbz-Phe-Phe-CH2F), the half-inhibitory concentration (IC50) in [1] came to 0.397 µM.

As for `O=C(/C=C/c1ccc(O)c2ccccc12)c1ccco1`, the figures for the 50% inhibitory concentration (IC50) (at Cathepsin B [2]; in [1]; against Procathepsin L) were greater than 50 µM, 40.9 µM and 33 µM, respectively.

`COc1ccccc1/C=C/C=C/C(=O)c1cccnc1`: the IC50 turned out to be 33.3 µM on Cathepsin B [2], 19.1 µM in assay [1] and 48.4 µM on Procathepsin L.

With `COc1ccc(/C=C/C(=O)c2ccc(O)cc2)c2ccccc12`, the half-inhibitory concentration (IC50) against Cathepsin B [2] stood at 14.5 µM; in assay [1], 10.2 µM; on Procathepsin L, 25.8 µM.

For the molecule `COc1ccccc1/C=C/C=C/C(=O)c1ccc(O)cc1`, the IC50 amounted to 33.1 µM against Cathepsin B [2], 13.7 µM in [1] and 26.1 µM on Procathepsin L.

As to `O=C(/C=C/c1ccc(O)c2ccccc12)c1ccc(O)cc1`, the IC50 against Cathepsin B [2] is 14.8 µM; in [1], 69.6 µM; at Procathepsin L it was 21.6 µM.

`COc1cc(O)ccc1C(=O)/C=C/c1ccc(O)c2ccccc12`: the results for the half-inhibitory concentration (IC50) (on Cathepsin B [2]; in [1]; at Procathepsin L) were 15.6 µM, 23.8 µM and 15.6 µM, respectively.

Turning to `CCOC(=O)[C@H]1O[C@@H]1C(=O)N[C@@H](CC(C)C)C(=O)NCCC(C)C` [ALOXISTATIN], the IC50 on Cathepsin B [2] was found to be 14.4 µM; in assay [1], 62.3 µM; against Procathepsin L it was 2.41 µM. The result in the assay with SH-SY5Y [3] was Active.

As to `COc1ccc(O)cc1/C=C/C(=O)c1ccc(O)cc1`, the IC50 in assay [4] was 16.7 µM.

Take `COc1ccc(/C=C/C(=O)/C=C/c2ccc(O)cc2OC)cc1`: the 50% inhibitory concentration (IC50) at Cathepsin B [2] was 37.8 µM; in assay [1] it was 46.6 µM; on Procathepsin L, greater than 50 µM.

In the case of `CC(C)[C@H](NC(=O)OCc1ccccc1)C(=O)NC(C=O)Cc1ccccc1` (stereo partly drawn) (Cbz-Val-[ξF]-aldehyde), the result in the assay on SH-SY5Y [3] was Active.

In the case of `COc1cc(/C=C/C=C/C(=O)c2ccc(O)cc2)ccc1O`, the inhibition result (in assay [5]; in the assay on SH-SY5Y [6]; in [8]; in assay [10]; in assay [15]; in [16]) was “Active” each time. For the same molecule, the result in the assay with SH-SY5Y [7], with SH-SY5Y [9] and in the assay with SH-SY5Y [17] was Active. For the same molecule, the half-maximal inhibitory concentration (IC50) against Cathepsin B [2] was 11.1 µM; in [1], 16.8 µM; on Cathepsin B [14] it was 3.81 µM; against Procathepsin L, 16 µM. Further, the inhibition constant Ki was determined as 4.74 µM at Cathepsin B [11] and 5.73 µM in [12]. Besides, the inhibition result (at Cathepsin B [11]; in assay [13]) was “Dose-dependent effect” throughout.

`O=C(/C=C/c1ccc(O)c2ccccc12)c1cccs1`: the IC50 on Cathepsin B [2] is greater than 50 µM; in [1], greater than 50 µM; at Procathepsin L it was 35.4 µM.

In the case of `CCCC[C@@H](C=O)NC(=O)[C@H](CC(C)C)NC(=O)OCc1ccccc1` [CALPEPTIN], the 50% inhibitory concentration (IC50) is greater than 100 µM against Cathepsin B [2], 0.297 µM in [1] and 0.072 µM against Procathepsin L.

On to `CCCNC(=O)[C@H]1O[C@@H]1C(=O)N[C@H](C(=O)N1CCC[C@H]1C(=O)O)[C@@H](C)CC`, for which the IC50 in [1] is greater than 100 µM. Besides, the outcome with SH-SY5Y [3] was Active.

For the molecule `O=C(/C=C/c1ccc(O)c2ccccc12)c1ccc(O)cc1O`, the inhibition entry (in assay [5]; in the assay with SH-SY5Y [6]; in [8]; in [10]; in assay [15]; in [16]) was “Active” in each case. Further, the outcome with SH-SY5Y [7], with SH-SY5Y [9] and with SH-SY5Y [17] was Active. In addition, the concentration for half-maximal inhibition (IC50) against Cathepsin B [2] was found to be 6.34 µM; in assay [1], 18.8 µM; against Cathepsin B [14] it was 13 µM; against Procathepsin L it was 14.9 µM. Moreover, the Ki at Cathepsin B [11] amounted to 10.6 µM; in assay [12], 19.3 µM. The inhibition result (on Cathepsin B [11]; in assay [13]) was “Dose-dependent effect” throughout.

Take `COc1cc(/C=C/C(=O)c2ccco2)ccc1O`: the IC50 is 20.6 µM on Cathepsin B [18] and 15.4 µM in [4].

With `COc1cc(O)ccc1C(=O)/C=C/c1ccc(O)cc1`, in [4], the half-inhibitory concentration (IC50) was determined as 16.9 µM.

In the case of `CCOc1cc(O)ccc1C(=O)/C=C/C=C/c1ccccc1OC`, the IC50 came out at 13.9 µM against Cathepsin B [2], 13 µM in assay [1] and 27 µM at Procathepsin L.
